Structures are written as SMILES.

On to `Cc1cc(C)cc(Sc2c(C(C)C)c(=O)[nH]c(=O)n2CC#Cc2ccccc2)c1`, for which the melting point was in the range of 113 to 115 °C.

In turn, `CCCCCCCC1=CC(=O)OC1(O)CNc1ccccc1` (stereo not drawn) gave a melting point of 172 to 174 °C.

With `COC1CN(c2ccc(N3C[C@H](CN=[N+]=[N-])OC3=O)cc2F)C1`, the melting point was 111 to 112 °C.

Compound `CNC(=S)NCc1ccc(Br)nc1` gave a melting point of 117 to 118 °C.

For `Cc1cccc(-c2cc(C(F)(F)F)cc3c2OC(CN)C3)c1` (stereo not drawn), the melting point was over 250 °C.

In turn, `Cc1ncc(CO)c2c1OC(C(F)(F)F)C(C(=O)O)=C2` (stereo not drawn) gave a melting point of 76.1 to 80.1 °C.

In the case of `N#Cc1ncccc1-c1nc2cccnc2o1`, the melting point lay within 129 to 133 °C.

The compound `Nc1cc(-c2nnc(SCc3ccc(Cl)cc3)o2)ccn1` returned a melting point of 200 to 201 °C.

`CCCS(=O)(=O)c1c(C)nn(-c2c(Cl)cc(C(F)(F)F)cc2Cl)c1N` came in with a melting point of 146 to 147 °C.

Turning to `Cc1oc(-c2ccco2)nc1COc1ccc(Cn2cc(CC(=O)O)c(-c3ccccc3)n2)cn1`, the melting point is 135 to 136 °C.

On to `COC(Nc1ccccc1)(OC)C1(Br)C=CN=C(C(=O)c2ccccc2)C1` (stereo not drawn), for which the melting point fell in the range of 189 to 190 °C.

Turning to `N#Cc1cc([N+](=O)[O-])ccc1Sc1ccccc1`, the melting point is 82 to 84 °C.

With `CCn1cc2c(n1)c(=O)[nH]c1cc(OCc3ccccc3)ccc12`, the melting point is 240 to 241 °C.

`CCOc1c(CO)cnc2c1cnn2CC` displayed a melting point of 100 to 102 °C.

Compound `CS(=O)(=O)C(CC(S(C)(=O)=O)S(C)(=O)=O)S(C)(=O)=O` had a melting point of 278 to 280 °C.

As for `CNC(=O)c1ccc(-n2nc(C(=O)NC3(C(=O)O)C4CC5CC(C4)CC3C5)cc2-c2c(OC)cccc2OC)c2ccccc12` (stereo not drawn), the melting point was 170 °C.

As for `Clc1ccc(OCc2ccccc2)c(C=Cc2ccccn2)c1`, the melting point was in the range of 105 to 106 °C.

The compound `CCCCCN1C(=O)C(CO)(c2ccc3c(c2)OCO3)c2ccccc21` (stereo not drawn) showed a melting point of 110 to 113 °C.

Turning to `O=C1CN(c2ccc(Cl)cc2)C(=S)N1c1ccc(Cc2ccccc2)cc1`, the melting point came out at 153 °C.

Regarding `CC(=O)n1cc(-c2ccccc2)c(O)n1`, the melting point was found to be 215 °C.

For `O=C(NCc1ccc(Cl)cc1)c1cn(CCN2CCCC2)c2ccc(C#CCO)cc2c1=O`, the melting point lay in the range of 189 to 192 °C.

In turn, `Cc1cccnc1COc1nn2c(-c3ccccc3)nnc2cc1N1CCCCC1` displayed a melting point of 160 °C.

Regarding `COc1ccccc1C(=O)CN1c2nc(-c3ccncc3)cc(=O)n2CCC1c1ccccc1` (stereo not drawn), the melting point lay within 142 to 144 °C.

For `CSc1nnc(C(O)(c2ccc(Cl)cc2)c2ccc3nc(C)cc(-c4cccc(Cl)c4)c3c2)n1C` (stereo not drawn), the melting point came out at 142 °C.

The compound `N#CCNC(=O)C(Cl)c1ccccc1` (stereo not drawn) returned a melting point of 73 to 74 °C.

The compound `CCCC1CCc2c(c(F)c(F)c3oc(C)cc23)O1` (stereo not drawn) came in with a melting point of 75 °C.

In turn, `CCOC(=O)c1cnn(-c2ccc(C=O)cc2)n1` gave a melting point of 126 to 129 °C.

Compound `COc1cccc(OC)c1-c1cc(C(=O)NC2(C(=O)O)C3CC4CC(C3)CC2C4)nn1-c1cccc2ncccc12` (stereo not drawn) gave a melting point of over 260 °C.

`CCn1c2ccccc2c2cc(C(C#N)=C(C#N)c3ccc(C(F)(F)F)cc3)ccc21` showed a melting point of 180 to 182 °C.

Turning to `COC(=O)C#CC(=O)c1ccc2c(c1)OCO2`, the melting point fell in the range of 95 to 97 °C.

The compound `CC(=O)c1cc2c(s1)CCCC1CC(=O)N(c3ccc(Cl)cc3)N=C21` (stereo not drawn) had a melting point of 128 to 130 °C.

In turn, `COc1cc(CN2CCN(c3ccc(C(=O)NC4CC4)cc3C)CC2)cc2c1OCC(=O)N2` had a melting point of 220 to 228 °C.

On to `O=CCC1Cc2ccc(Cl)cc2C1=O` (racemic), for which the melting point was found to be 80 °C.

`NCCNc1cc(-n2cccn2)nc(-c2cccs2)n1`: the melting point came to 147 °C.

As to `Cc1cnn(CN(C(=O)CCl)c2c(C)cccc2C)c1`, the melting point amounted to 100 °C.

The compound `CC12CCC(C(=O)O)=CC1=CCc1cc(Cl)ccc12` (single isomer, unassigned; (-)) registered a melting point of 228 to 230 °C.

In the case of `O=C(CN1CCC(Cc2ccc(F)cc2)CC1)Nc1ccc2c(c1)CC(=O)N2`, the melting point lay in the range of 178 to 180 °C.

`CC(C)(C)OC(=O)N1CCC2(CC1)CC(=O)N(O)C2=O` registered a melting point of 151 to 154 °C.

In the case of `O=P(O)(O)OP(=O)(O)O`, the melting point worked out at 212 °C.

The compound `COC(=O)Cc1c(-c2ccccc2)nn(-c2ccccc2)c1-c1ccccc1` gave a melting point of 80.5 to 81.5 °C.

Compound `Brc1ccc(-n2ccc3cc(OCc4ccccc4)ccc32)cc1` came in with a melting point of 118 °C.

`O=c1c2c(Cl)cccc2nc(CSc2ncnc3[nH]cnc23)n1-c1ccccc1F` registered a melting point of 244 °C.

`OCc1c(Br)c(Br)c(Br)c(CO)c1Br` displayed a melting point of 248 to 252 °C.

With `O=C(O)CCCCCc1cnc2ccccc2c1`, the melting point was 129 to 131 °C.

Take `Cc1c(S(=O)(=O)Nc2ccc(CO)cc2S(C)(=O)=O)sc2ccc(F)cc12`: the melting point lay in the range of 120 to 121 °C.

In turn, `CCC(CC)c1ccc(Cl)c2nc3n(c12)CCCCN3c1ccc(S(C)=O)cc1C` (stereo not drawn) gave a melting point of 189 to 190 °C.

`Cn1cc(-c2ccccc2)c(=O)c(-c2cccc(S(=O)(=O)c3ccccc3)c2)c1` yielded a melting point of 65 to 72 °C.

For the compound `O=C(NO)C1C2CCC(CC2)C1S(=O)(=O)c1ccc(Oc2ccccc2)cc1` (stereo not drawn), the melting point was 89.9 to 91.8 °C.

Compound `COc1cc(CCl)c(OCCC(C)CCCC(C)C)cc1CCl` (stereo not drawn) displayed a melting point of 65 °C.

`COc1cc(C2NCCS2)ccc1O` (stereo not drawn) returned a melting point of 158 to 161 °C.

`COC(=O)c1cc(C)cc(-c2cccs2)c1NS(=O)(=O)c1ccc(OC)cc1`: the melting point is 141 °C.

In the case of `C#CCN(Cc1ccc2nc(C)[nH]c(=O)c2c1)c1ccc(C(=O)NCC2CCNCC2)cc1`, the melting point was in the range of 130 to 133 °C.

`Cc1nc2cccc(OCC(C)C)c2c(N)c1C(=O)O` showed a melting point of 204 °C.

As for `COc1ccc(/C=C/C(=O)Nc2ccccc2)cc1OC`, the melting point fell in the range of 131 to 133 °C.

`COc1cc(C)nc(-c2ccc(CBr)cc2)n1` returned a melting point of 98 to 99 °C.

The compound `Cc1cc(=O)c(OCc2ccccc2)c(C=O)o1` yielded a melting point of 78 to 81 °C.

With `CCCCOC(=O)[C@@H]1OC(c2ccc(C#Cc3ccc(C4O[C@@H](C(=O)OCCCC)[C@H](C(=O)OCCCC)O4)cc3)cc2)O[C@H]1C(=O)OCCCC`, the melting point was 54 °C.

On to `COc1ccc2c(c1)c1c3c(c(-c4c(Cl)cccc4Cl)cc1n2CCC(N)=O)C(=O)NC3=O`, for which the melting point lay in the range of 261 to 264 °C.

The compound `C[C@H]1[C@@H](C(C)(C)O)CCN1c1ccc(C#N)c(Cl)c1F` had a melting point of 125 to 126 °C.

`O=C(Cl)C12CC(C(=O)Cl)(C1)C2` came in with a melting point of 55 to 57 °C.

Consider `O=C(c1cc(N2CCCCC2)ccn1)N(O)CCCc1ccccc1`, for which the melting point lay in the range of 125 to 130 °C.

Consider `CCC1OCC(O)CO1` (stereo not drawn), for which the melting point lay within 62 to 68.5 °C.

For `NC(=O)C(c1ccccc1)c1ccccn1` (racemic), the melting point stood at 134 °C.

`O=c1cc(-c2cc(OCc3ccccc3)cc(OCc3ccccc3)c2)oc2cc(OCC(O)CN3CCN(c4ccccc4)CC3)ccc12` (stereo not drawn): the melting point fell in the range of 168 to 170 °C.

On to `CCCCCCCC[C@H]1CC[C@H](C(=O)O)CC1`, for which the melting point is 36 to 37 °C.

As to `N#Cc1ccc(Oc2cc(F)cc(F)c2)c([N+](=O)[O-])c1`, the melting point is 132 to 136 °C.

For `O=C(c1ccc(Nc2ccnc3cc(C(F)(F)F)ccc23)cc1)N1CCN(S(=O)(=O)c2ccc(Cl)cc2)CC1`, the melting point lay in the range of 234 to 236 °C.

With `CCOc1ccc2c(c1)n(C1CCCCC1)c(=O)n2S(=O)(=O)c1ccc(NC(=O)N(C)C(C)(C)C)cc1OC`, the melting point turned out to be 208 °C.

As for `CC(C)(C)c1ccc(CCC(=O)CC2CCCCC2)cc1NC(=O)CC1c2ccccc2Oc2ccccc21`, the melting point was 154 to 155 °C.

`CNC(=O)N(OC)c1ccccc1COc1ccc2c(c1)OCC2=NOC` had a melting point of 109 to 112 °C.

`CCOC(=NC(=O)c1ccc(-c2ccccc2)cc1)N1Cc2ccccc2-c2ccccc2C1` returned a melting point of 52 to 58 °C.

In turn, `O=C(O)CCc1oc(NC2CCCCC2)nc1-c1ccc(Cl)cc1` displayed a melting point of 237 to 238 °C.

`Cc1cc2nn(C)c(=O)n2nc1-c1cccc([N+](=O)[O-])c1` registered a melting point of 250 to 253 °C.

In the case of `CC(C)c1ccc(NC(=O)Nc2cccc(C(=O)O)c2)cc1`, the melting point lay within 295 to 300 °C.

`CC1CCc2c(N3CCC(O)CC3)c(F)cc3c(=O)c(C(=O)O)cn1c23` (stereo not drawn) had a melting point of 244 to 247 °C.

In turn, `O=C1NC(=O)C2(N1)C(=O)N(Cc1ccc(Br)cc1F)c1c(C(F)(F)F)cccc12` (stereo not drawn) had a melting point of 197 to 199 °C.

Compound `O=C(O)CCCCCCCCCCC(=O)Nc1ccccc1OCCCC(=O)O` came in with a melting point of 128 to 130 °C.

As for `CSC(=S)Oc1cnc(C)c2c1COC(C)(C)O2`, the melting point lay within 88 to 90 °C.

The compound `Cc1ccc(S(=O)(=O)OCC2Cc3cccc(Nc4ccc(C)c(C)c4)c3O2)cc1` (stereo not drawn) showed a melting point of 88 to 90 °C.

`Cc1ccc(CC(O)(P(=O)(O)O)P(=O)(O)O)cc1` displayed a melting point of 211 to 213 °C.

For `N=C(c1cc(Cl)ccc1N)C1CCCCC1`, the melting point is 65 °C.

`O=c1ccc(Oc2ccc([N+](=O)[O-])cc2)c[nH]1` showed a melting point of 214 to 217 °C.

Consider `CC1CN(Cc2ccccc2)Cc2c(C=O)c(-c3ccccc3)n(Cc3ccccc3)c21` (stereo not drawn), for which the melting point fell in the range of 120 to 121 °C.

`O=C(Nc1ccc(Nc2ccccc2)cc1)OCCc1ccc([N+](=O)[O-])cc1` showed a melting point of 146 to 148 °C.

Compound `Nc1nc2c(nc(C#Cc3ccc(C(F)(F)F)cc3)n2C2OC(CO)C(O)C2O)c(=O)[nH]1` (stereo not drawn) returned a melting point of over 240 °C.

Regarding `NC(=O)[C@H](Cc1cccnc1)NC(=O)OCc1ccccc1`, the melting point amounted to 153 °C.

As for `CSCc1cn(C)c2ccc(C)cc2c1=O`, the melting point fell in the range of 142 to 143 °C.

Take `COC(=O)c1ccc2nc(C)[nH]c2c1C(=O)OC`: the melting point is 97 to 103 °C.

These data come from a melting point compilation (Tetko et al.; mined from patent text by program, amines drawn as free bases though some values may be those of a salt).
